According to patent publication US20110218188A1, “SUBSTITUTED (PYRIDYL)-AZINYLAMINE DERIVATIVES AS FUNGICIDES” (priority 2008, published 2011):

Experiment: Measurement of logP values by HPLC on reversed phase columns (EEC directive 79/831 Annex V.A8)
Type: physicochemical
Conditions: pH 2.7

SMILES	chromatographic logP	logP
CC(=NNCCC#N)c1cc(-c2ncnc(Nc3cccc(Cl)c3)n2)ccn1 [Example B81, 3-{2-[1-(4-{4-[(3-chlorophenyl)amino]-1,3,5-triazin-2-yl}pyridin-2-yl)ethylidene]hydrazinyl}propanenitrile]	2.5	–
CC(=NOCc1c(Cl)cccc1Cl)c1cc(-c2ncnc(Nc3cccc(Cl)c3)n2)ccn1 (mixture of isomers) [B39]	–	6.02
CCC(=NOCc1ccccc1)c1cc(-c2ncnc(Nc3cccc(Cl)c3)n2)ccn1 (mixture of isomers) [B72]	–	5.65
CCN(CC)C(=O)c1cc(-c2ncnc(Nc3ccccc3)n2)ccn1 [Example B311]	–	2.55
CC(C)CN(C)C(=O)c1cc(-c2ncnc(Nc3ccc(F)c(C(F)F)c3)n2)ccn1 [Example B395]	–	3.15
CCOc1cccc(Nc2ncnc(-c3ccnc(C(=O)N(C)CC)c3)n2)c1 [Example B254]	–	2.6
CN(C)C(=O)c1cc(-c2ncnc(Nc3cccc(Cl)c3)n2)ccn1 [Example B150]	–	2.4
CC(C)CN(C)C(=O)c1cc(-c2ncnc(Nc3ccc(Cl)c(C(F)F)c3)n2)ccn1 [Example B388]	–	3.58
CCCCCCN(C)C(=O)c1cc(-c2ncnc(Nc3cccc(Cl)c3)n2)ccn1 [Example B128]	–	4.34
CN(CCC#N)C(=O)c1cc(-c2ncnc(Nc3ccc(F)c(C(F)F)c3)n2)ccn1 [Example B397]	–	2.37
CN(C)C(=O)c1cc(-c2ncnc(Nc3cccc(OC(F)F)c3)n2)ccn1 [Example B300]	–	2.25
COC(=O)c1cc(-c2ncnc(Nc3cccc(Cl)c3)n2)ccn1 [Example B25]	–	2.79
CC(C)N(C)C(=O)c1cc(-c2ncnc(Nc3ccc(F)c(C(F)F)c3)n2)ccn1 [Example B396]	–	2.78
CN(CC1CC1)C(=O)c1cc(-c2ncnc(Nc3ccc(F)c(F)c3)n2)ccn1 [Example B381]	–	2.98
CN(C)C(=O)c1cc(-c2ncnc(Nc3cccc(OC(F)(F)C(F)F)c3)n2)ccn1 [Example B364]	–	2.64
CC(C)CN(C)C(=O)c1cc(-c2ncnc(Nc3ccsc3)n2)ccn1 [Example C16]	–	2.63

SMILES	chromatographic logP	logP
CCCN(C)C(=O)c1cc(-c2ncnc(Nc3ccc(Cl)c(C(F)F)c3)n2)ccn1 [Example B387]	–	3.23
NC(=O)c1cc(-c2ncnc(Nc3cccc(F)c3)n2)ccn1 [B324]	–	2.09
CCCN(CC)C(=O)c1cc(-c2ccnc(Nc3ccnc(Cl)c3)n2)ccn1 [Example A26]	–	2.51
COCCNC(=O)c1cc(-c2ncnc(Nc3ccc(F)c(Cl)c3)n2)ccn1 [B193]	–	3.08
CCCN(C)C(=O)c1cc(-c2ncnc(Nc3ccccc3)n2)ccn1 [Example B312]	–	2.55
CSc1cccc(Nc2ncnc(-c3ccnc(C(=O)NC4CC4)c3)n2)c1 [B213]	–	3.15
CCC(=O)O/N=C(/N)c1cc(-c2ncnc(Nc3cccc(Cl)c3)n2)ccn1 [B108]	–	3.33
CN(CC(F)F)C(=S)c1cc(-c2ncnc(Nc3ccc(F)c(C(F)F)c3)n2)ccn1 [Example B342]	–	3.35
CCN(CC1CCCO1)C(=O)c1cc(-c2ncnc(Nc3cccc(Cl)c3)n2)ccn1 (centres unmarked) [Example B167]	–	3.09
CN1CCN(C(=O)c2cc(-c3ncnc(Nc4cccc(Cl)c4)n3)ccn2)CC1 [Example B184]	–	1.5
O=C(c1cc(-c2ncnc(Nc3cccc(Cl)c3)n2)ccn1)N1CCCCCC1 [Example B138]	–	3.46
CCN(C)C(=S)c1cc(-c2ncnc(Nc3cccc(C(F)(F)F)c3)n2)ccn1 [Example B257]	–	3.41
Cc1ccc(Nc2ncnc(-c3ccnc(C(=O)NCC4CC4)c3)n2)cc1Cl [B233]	–	4.16
CCN(C)C(=O)c1cc(-c2ncnc(Nc3cccc(OC(F)(F)F)c3)n2)ccn1 [Example B268]	–	3
COc1cccc(Nc2ncnc(-c3ccnc(C(=O)N(C)CC4CC4)c3)n2)c1F [Example B275]	–	2.7
CCC1CCCCN1C(=O)c1cc(-c2ncnc(Nc3cccc(Cl)c3)n2)ccn1 (centres unmarked) [Example B139]	–	3.8
